Experimental data from the supplement of paper PMC10307832.

Tests used:
Assay in all cases: relative viability (nuclei count vs DMSO), 5 days (fraction); higher = more cells survive
Vandetanib + OSI-027 = compound: COc1cc2/c(=N/c3ccc(Br)cc3F)nc[nH]c2cc1OCC1CCN(C)CC1 [Vandetanib] + COc1cccc2cc(-c3nc([C@H]4CC[C@H](C(=O)O)CC4)n4ncnc(N)c34)[nH]c12 [OSI-027] (partner 0.5 µM)
Summary of the method: (§1)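 Lung cancer cell lines, seeded in 1536-well plates, were treated the following day by pin tool with a single drug or with five library-drug doses (not always all listed) in √10 steps on top of a fixed anchor-drug dose. Cells were fixed and nuclei stained in one step after 5 days, and nuclei were counted. Relative viability is the nuclei count for treated wells divided by that for vehicle wells, reported as medians of duplicate plates.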

NVP-TAE684 + Vorinostat = compound: COc1cc(N2CCC(N3CCN(C)CC3)CC2)ccc1Nc1ncc(Cl)c(Nc2ccccc2S(=O)(=O)C(C)C)n1 [NVP-TAE684] + O=C(CCCCCCC(=O)Nc1ccccc1)NO [Vorinostat] (partner 1 µM)
Summary of the method: as §1

Vandetanib + Vorinostat = compound: COc1cc2/c(=N/c3ccc(Br)cc3F)nc[nH]c2cc1OCC1CCN(C)CC1 [Vandetanib] + O=C(CCCCCCC(=O)Nc1ccccc1)NO [Vorinostat] (partner 1 µM)
Summary of the method: as §1

[1] = compound: C1=CC=C2C(=C1)N=C(S2)C(C#N)C3=NC(=NC=C3)NCCC4=CN=CC=C4 + O=C(c1cc(Cc2n[nH]c(=O)c3ccccc23)ccc1F)N1CCN(C(=O)C2CC2)CC1 [Olaparib] (partner 8 µM)
Summary of the method: as §1

Cell Line | relative viability (Vandetanib + OSI-027; first compound 0.02 µM) | relative viability (Vandetanib + OSI-027; first compound 0.06325 µM) | relative viability (Vandetanib + OSI-027; first compound 0.2 µM) | relative viability (Vandetanib + OSI-027; first compound 0.6325 µM) | relative viability (Vandetanib + OSI-027; first compound 2 µM) | relative viability (NVP-TAE684 + Vorinostat; first compound 0.2 µM) | relative viability (NVP-TAE684 + Vorinostat; first compound 0.6325 µM) | relative viability (NVP-TAE684 + Vorinostat; first compound 2 µM) | relative viability (Vandetanib + Vorinostat; first compound 0.02 µM) | relative viability (Vandetanib + Vorinostat; first compound 0.06325 µM) | relative viability (Vandetanib + Vorinostat; first compound 0.2 µM) | relative viability (Vandetanib + Vorinostat; first compound 0.6325 µM) | relative viability (Vandetanib + Vorinostat; first compound 2 µM) | relative viability ([1]; first compound 0.005 µM) | relative viability ([1]; first compound 0.01581 µM) | relative viability ([1]; first compound 0.05 µM) | relative viability ([1]; first compound 0.1581 µM) | relative viability ([1]; first compound 0.5 µM)
ChaGo-K-1 | 0.532 | 0.54 | 0.515 | 0.602 | 0.591 | 0.786 | 0.691 | 0.518 | 0.735 | 0.765 | 0.767 | 0.797 | 0.798 | 0.372 | 0.425 | 0.408 | 0.421 | 0.402
NCI-H2126 | 0.694 | 0.661 | 0.64 | 0.627 | 0.648 | 0.808 | 0.732 | 0.443 | 0.801 | 0.736 | 0.703 | 0.702 | 0.699 | 0.771 | 0.945 | 0.887 | 0.978 | 0.75
RERF-LC-KJ | 0.627 | 0.537 | 0.545 | 0.471 | 0.412 | 0.589 | 0.644 | 0.48 | 0.689 | 0.607 | 0.724 | 0.608 | 0.536 | 0.923 | 0.993 | 0.895 | 0.97 | 0.44
NCI-H3122 | 0.97 | 0.924 | 0.937 | 0.931 | 1.06 | 0.273 | 0.229 | 0.103 | 0.95 | 0.965 | 1.08 | 1.02 | 0.994 | 0.671 | 0.655 | 0.691 | 0.788 | 0.885
NCI-H322M | 0.573 | 0.551 | 0.608 | 0.49 | 0.422 | 0.858 | 0.811 | 0.565 | 0.867 | 0.853 | 0.874 | 0.761 | 0.583 | 0.755 | 0.746 | 0.779 | 0.78 | 0.677
NCI-H647 | 0.572 | 0.554 | 0.73 | 0.596 | 0.674 | 0.792 | 0.6 | 0.174 | 0.514 | 0.569 | 0.684 | 0.715 | 0.432 | 0.423 | 0.536 | 0.583 | 0.572 | 0.3
EMC-BAC-2 | 0.382 | 0.358 | 0.318 | 0.381 | 0.38 | 0.46 | 0.338 | 0.393 | 0.506 | 0.469 | 0.431 | 0.5 | 0.369 | 0.512 | 0.481 | 0.469 | 0.476 | 0.427
PC-14 | 0.931 | 0.576 | 0.458 | 0.145 | 0.109 | 0.44 | 0.69 | 0.144 | 0.774 | 0.619 | 0.493 | 0.107 | 0.0824 | 0.28 | 0.267 | 0.211 | 0.244 | 0.247
201T | 0.69 | 0.664 | 0.719 | – | 0.672 | 1.02 | 1 | 0.831 | 0.886 | 0.876 | 0.959 | 0.904 | 0.957 | 0.829 | 0.837 | 0.802 | 0.905 | 0.706
